In patent publication US20250195475A1, “CDK2 INHIBITOR AND PREPARATION METHOD AND USE THEREOF” (INVENTISBIO CO., LTD., priority 2022, published 2025):

molecular target: CDK2/CyclinE1 (Homo sapiens (Human), UniProt P24941); experiment: CDK2 kinase assay (TR-FRET); type: biochemical; settings: CDK2/CyclinE1 0.5 nM, ATP 50 μM
Method: The purpose of these assays is to evaluate the inhibition of small molecule inhibitors by using TR-FRET assay.
Compound Preparation. Dissslove the compounds into DMSO solution to make 10 mM DMSO stock. Serially dilute the stock solution from highest concentration down to lowest in DMSO to make the compound stock plate (100× stock plates). To make 5× compound intermediate plate, add 38 μL of assay buffer (50 mM HEPES, pH 7.5, 0.05 mg/mL BSA, 10 mM MgCl2, 1 mM EGTA, 0.01% Tween-20, 2 mM DTT) into each well of the V-bottom plate; then transfer 2 μL of the stock compound solution of each concentration from the compound stock plate (100× stock), and mix well.
Enzyme reaction. Transfer 2 μL compound from 5× intermediate plate into assay plate, then add 4 μL/well 2.5× Enzyme mix to assay plate, incubation for 10 min at room temperature. For positive control wells, add 4 μL/well assay buffer instead of Enzyme mix. Then add 4 μL/well 2.5× Substrate mix to assay plate, and incubation at 25° C. for 30 min at room temperature. After reaction, 10 μL 2× Detection mix (final 15 mM EDTA, 1× LANCE Detection Buffer, 0.5 nM Detection antibody) was added and incubated for 1 h prior to detection with excitation and emission at 320 and 665 nm (Tecan Spark® TR-FRET mode Tecan).
Inhibition rate (IR) of the tested compounds was determined by the following formula: IR (%)=(average High control−compound well)/(average High control−average Low control)*100%. Fit the compound IC50 from non-linear regression equation: Y=Bottom+(Top−Bottom)/(1+10^((Log IC50−X)*HillSlope)). X: Log of cpd concentration; Y: Inhibition rate (TR); Top and Bottom: Plateaus in same units as Y, log IC50: same log units as X; HillSlope: Slope factor or Hill slope.

SMILES | IC50
COC1CCC(C(=O)Nc2cc([C@H]3CC[C@@H](OC(=O)NC(C)C)C3)[nH]n2)C1 (single isomer, unassigned) [Compound 60] | 37.4 nM
CC1(NC(=O)O[C@H]2CC[C@@H](c3cc(NC(=O)C4CC4C#N)n[nH]3)C2)CC1 (single isomer, unassigned) [Compound 196] | 0.4 nM
COC[C@H]1CCN(C(=O)Nc2cc([C@H]3CC[C@@H](OC(=O)NC(C)C)C3)[nH]n2)C1 [Compound 123] | 265 nM
CC(C)NC(=O)O[C@@H]1CC[C@H](c2cc(NC(=O)[C@H]3C[C@@H]3COC(C)C)n[nH]2)C1 [Compound 45] | 2.7 nM
Cn1nc(C2CC2)cc1C(=O)Nc1cc([C@H]2CC[C@@H](OC(=O)NC3COC4(CCC4)C3)C2)[nH]n1 (single isomer, unassigned) [Compound 48] | 10.7 nM
COCC1C[C@@H]1C(=O)Nc1cc([C@H]2CC[C@@H](OC(=O)NC(C)(C)C)C2)[nH]n1 (some centres unmarked) [Compound 85] | 2 nM
CC(C)NC(=O)O[C@@H]1CC[C@H](c2cc(NC(=O)[C@H]3C[C@@H]3C#CC(F)F)n[nH]2)C1 [Compound 161] | 1 nM
COC1CCC(C(=O)Nc2cc([C@H]3CC[C@@H](OC(=O)NC(C)C)C3)[nH]n2)C1 (single isomer, unassigned) [Compound 61] | 13.1 nM
CC(C)NC(=O)O[C@@H]1CC[C@H](c2cc(Nc3nccc(CCO)n3)n[nH]2)C1 [Compound 29] | 68.8 nM
CC(C)NC(=O)O[C@@H]1CC[C@H](c2cc(NC(=O)C3CC34CCOC4)n[nH]2)C1 (some centres unmarked) [Compound 176] | 33 nM
CC(C)NC(=O)O[C@@H]1CC[C@H](c2cc(NC(=O)C3CC3OCC(F)F)n[nH]2)C1 (some centres unmarked) [Compound 147] | 4.8 nM
CC(C)NC(=O)O[C@@H]1CC[C@H](c2cc(NC(=O)[C@H]3CCN(C(=O)c4cnn(C)c4)C3)n[nH]2)C1 [Compound 32] | 2.9 nM
CC(C)NC(=O)O[C@@H]1CC[C@H](C2=CC(NC(=O)[C@H]3C[C@@H]3[C@@H](C)O)=NC2)C1 [Compound 137] | 5.3 nM
CC(C)NC(=O)O[C@@H]1CC[C@H](c2cc(NC(=O)C3CCOCC3)n[nH]2)C1 [Compound 1] | 7.1 nM
COC[C@H]1C[C@@H]1C(=O)Nc1cc([C@@H]2CC[C@H](OC(=O)NC3(C)CC3)C2)[nH]n1 [Compound 184] | 0.5 nM
Cc1cc(C(=O)Nc2cc([C@@H]3C[C@H](OC(=O)NC(C)C)CO3)[nH]n2)n(C)n1 [Compound 91] | 19.1 nM
CC[C@H](C)NC(=O)O[C@H]1CO[C@@H](c2cc(NC(=O)c3ccnn3C)n[nH]2)C1 [Compound 99] | 0.8 nM
CC1(NC(=O)OC2COC(c3cc(NC(=O)Cc4cc(F)cc(F)c4)n[nH]3)C2)CCOC1 (centres unmarked) [Compound 50] | 0.9 nM
Cc1cc(CC(=O)Nc2cc([C@H]3CC[C@@H](OC(=O)NC4COC5(CCC5)C4)C3)[nH]n2)on1 (single isomer, unassigned) [Compound 38] | 22.4 nM
CC(C)NC(=O)O[C@H]1CC[C@@H](c2cc(NC(=O)C3CC3C#N)n[nH]2)C1 (single isomer, unassigned) [Compound 192] | 2 nM
CC(C)NC(=O)OC1COC(c2cc(NC(=O)Cc3ccccc3C(F)(F)F)n[nH]2)C1 (centres unmarked) [Compound 65] | 97.3 nM
C#C[C@H]1C[C@@H]1C(=O)Nc1cc([C@@H]2C[C@H](OC(=O)NC3(C)CCC3)CO2)[nH]n1 [Compound 171] | 1.3 nM
COCc1cc(C(=O)NC2=NCC([C@H]3CC[C@H](N4CCN(C(C)C)C4=O)C3)=C2)n(C)n1 [Compound 20] | 1000 nM
CC1(NC(=O)OC2COC(c3cc(NC(=O)Cc4cc(F)cc(F)c4)n[nH]3)C2)CCOC1 (centres unmarked) [Compound 51] | 1.7 nM

SMILES | IC50
COC[C@H]1C[C@@H]1C(=O)Nc1cc([C@H]2CC[C@@H](OC(=O)NC34CC(C(F)F)(C3)C4)C2)[nH]n1 [Compound 142] | 1.6 nM
Cc1c(C2CC2C(=O)Nc2cc([C@@H]3CC[C@H](OC(=O)NC(C)C)C3)[nH]n2)cnn1C (single isomer, unassigned) [Compound 207] | 40.1 nM
CC(C)NC(=O)O[C@@H]1CC[C@H](c2cc(NC(=O)[C@@H]3C[C@@H](C(C)C)N(S(C)(=O)=O)C3)n[nH]2)C1 [Compound 179] | 12.6 nM
Cc1c(C2CC2C(=O)Nc2cc([C@@H]3CC[C@H](OC(=O)NC(C)C)C3)[nH]n2)cnn1C (single isomer, unassigned) [Compound 208] | 0.8 nM
CCC1(NC(=O)O[C@@H]2CO[C@H](c3cc(NC(=O)c4ccnn4C)n[nH]3)C2)CCC1 [Compound 178] | 1.4 nM
COC(C)[C@H]1C[C@@H]1C(=O)Nc1cc([C@H]2CC[C@@H](OC(=O)NC3(C)CC3)C2)[nH]n1 (single isomer, unassigned) [Compound 220] | 1.5 nM
CC(C)NC(=O)O[C@@H]1CC[C@H](c2cc(NC(=O)C3CC3c3cnn(C)c3)n[nH]2)C1 (single isomer, unassigned) [Compound 209] | 29 nM
CCC1(NC(=O)O[C@H]2CO[C@@H](c3cc(NC(=O)c4ccnn4C)n[nH]3)C2)CC1 [Compound 203] | 0.9 nM
CCC1(NC(=O)O[C@H]2CO[C@@H](c3cc(NC(=O)c4ccnn4C)n[nH]3)C2)CCC1 [Compound 183] | 0.5 nM
CC(C)NC(=O)O[C@@H]1CC[C@H](c2cc(NC(=O)C34CC(C(F)F)(C3)C4)n[nH]2)C1 [Compound 106] | 1.8 nM
CC(C)NC(=O)O[C@@H]1CO[C@H](c2cc(NC(=O)Cc3cc(F)cc(C#N)c3)n[nH]2)C1 [Compound 116] | 4.5 nM
CC(C)NC(=O)O[C@@H]1CC[C@H](c2cc(NC(=O)C3CN(S(C)(=O)=O)CC3C)n[nH]2)C1 (some centres unmarked) [Compound 74] | 2.2 nM
CC1(NC(=O)O[C@@H]2CC[C@H](c3cc(NC(=O)[C@@H]4CCN(S(C)(=O)=O)C4)n[nH]3)C2)CC1 [Compound 83] | 1.1 nM
C#C[C@H]1C[C@@H]1C(=O)Nc1cc([C@H]2C[C@@H](OC(=O)NC3(C)COC3)CO2)[nH]n1 [Compound 182] | 4 nM
COC1CN(CC(=O)Nc2cc([C@H]3CC[C@@H](OC(=O)NC(C)C)C3)[nH]n2)C1 [Compound 72] | 210 nM
CC(C)NC(=O)O[C@@H]1CC[C@H](c2cc(NC(=O)C3CC4CCC3O4)n[nH]2)C1 (single isomer, unassigned) [Compound 146] | 44.3 nM
CC(C)NC(=O)O[C@@H]1CC[C@H](c2cc(NC(=O)C3CC3C#N)n[nH]2)C1 (single isomer, unassigned) [Compound 117] | 3.8 nM
CC(C)NC(=O)O[C@@H]1CC[C@H](c2cc(NC(=O)C3CC3c3cnn(C)c3)n[nH]2)C1 (single isomer, unassigned) [Compound 210] | 1 nM
CC[C@H](C)NC(=O)O[C@@H]1CC[C@H](c2cc(NC(=O)C3CC3C#N)n[nH]2)C1 (single isomer, unassigned) [Compound 199] | 2.3 nM
CC(C)NC(=O)O[C@@H]1CC[C@H](c2cc(NC(=O)C3CN(S(=O)(=O)C4CC4)CC3C)n[nH]2)C1 (some centres unmarked) [Compound 172] | 1.2 nM
Cn1nccc1C(=O)Nc1cc([C@H]2CC[C@@H](OC(=O)NC34CCC(CC3)OC4)C2)[nH]n1 [Compound 42] | 4.4 nM
CC1(NC(=O)O[C@@H]2CC[C@H](c3cc(NC(=O)C4CC4C#N)n[nH]3)C2)CC1 (single isomer, unassigned) [Compound 213] | 0.9 nM
CC(C)NC(=O)O[C@@H]1CO[C@H](c2cc(NC(=O)Cc3ccc4ncn(C)c4c3)n[nH]2)C1 [Compound 103] | 10.8 nM
